Data on 5 molecules can be found in PMC11375011, “Inducible auto-phosphorylation regulates a widespread family of nucleotidyltransferase toxins” (Nature Communications, 2024).

Structures are written as SMILES.

Test [1] concerns the target T1, MenA1:MenT1 (MenT1 in the presence of MenA1) (Mycobacterium tuberculosis, UniProt L7N686).
T1 construct: gene Rv0078A

In test [2] the target is T1, MenA1:MenT1 (MenT1 in the presence of MenA1). The source holds these as a separate data set.

With `Nc1nc2c(ncn2[C@@H]2O[C@H](COP(=O)(O)OP(=O)(O)OP(=O)(O)O)[C@@H](O)[C@H]2O)c(=O)[nH]1` [GTP], the ΔTm entry in test [1] was “no significant differences between mean ΔTm values were observed when incubated with any”.
Same read-out and setting: as for `Nc1ncnc2c1ncn2[C@@H]1O[C@H](COP(=O)(O)OP(=O)(O)OP(=O)(O)O)[C@@H](O)[C@H]1O` [ATP], the entry is “no significant differences between mean ΔTm values were observed when incubated with any”.
Regarding `Nc1ncnc2c1ncn2[C@@H]1O[C@H](COP(=O)(O)OP(=O)(O)O)[C@@H](O)[C@H]1O` [ADP], the “phosphorylation assay of MenT1” value in test [2] was “Co-incubation of MenT1, MenA1 and MgCl2 with ADP, but not AMP or AMP-PNP, supported phosphorylation”.
For `Nc1ccn([C@@H]2O[C@H](COP(=O)(O)OP(=O)(O)OP(=O)(O)O)[C@@H](O)[C@H]2O)c(=O)n1` [CTP], the ΔTm entry in test [1] was “no significant differences between mean ΔTm values were observed when incubated with any”.
Same read-out and setting: to `O=c1ccn([C@@H]2O[C@H](COP(=O)(O)OP(=O)(O)OP(=O)(O)O)[C@@H](O)[C@H]2O)c(=O)[nH]1` [UTP] belongs “no significant differences between mean ΔTm values were observed when incubated with any”.
